{"source": "paper PMC6484129", "about": "“Structure–function analyses reveal that a glucuronoyl esterase from Teredinibacter turnerae interacts with carbohydrates and aromatic compounds” (The Journal of Biological Chemistry, 2019)", "test_in_all_cases": "inhibition of BnzGlcA hydrolysis, coupled K-URONIC assay", "assay_type_in_all_cases": "biochemical", "key": {"TtCE15A [1]": {"biological_target": "T1, TtCE15A (Teredinibacter turnerae, UniProt C5BN23)", "T1 construct": "gene TERTU_0517", "T1 sequence (C5BN23 entry or part of it)": "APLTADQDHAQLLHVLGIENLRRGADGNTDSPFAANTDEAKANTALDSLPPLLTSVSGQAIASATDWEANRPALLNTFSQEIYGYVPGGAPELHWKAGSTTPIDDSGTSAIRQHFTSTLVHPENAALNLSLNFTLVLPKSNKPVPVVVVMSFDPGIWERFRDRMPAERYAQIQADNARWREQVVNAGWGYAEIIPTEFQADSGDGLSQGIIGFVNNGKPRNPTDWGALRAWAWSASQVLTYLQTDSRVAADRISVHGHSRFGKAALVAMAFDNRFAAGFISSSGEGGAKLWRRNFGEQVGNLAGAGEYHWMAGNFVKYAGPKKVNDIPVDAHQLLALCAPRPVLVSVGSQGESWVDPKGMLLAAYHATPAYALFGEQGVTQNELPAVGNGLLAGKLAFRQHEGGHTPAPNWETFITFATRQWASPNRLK", "excerpt": "(§1) inhibition of BnzGlcA hydrolysis, coupled K-URONIC assay on TtCE15A"}, "TtCE15A [2]": {"biological_target": "T2, TtCE15A (Teredinibacter turnerae, UniProt C5BN23, F174D)", "T2 construct": "gene TERTU_0517", "T2 sequence (C5BN23 entry or part of it F174D)": "as the sequence (C5BN23 entry or part of it) above, with F152D counted along it", "excerpt": "as §1"}, "TtCE15A [3]": {"biological_target": "T3, TtCE15A (Teredinibacter turnerae, UniProt C5BN23, F174A)", "T3 construct": "gene TERTU_0517", "T3 sequence (C5BN23 entry or part of it F174A)": "as the sequence (C5BN23 entry or part of it) above, with F152A counted along it", "excerpt": "as §1"}}, "note": "Where two headings read alike, the source gives them in different places."}
{"smiles": "COc1cc(/C=C/C(=O)O)ccc1O", "note": "[FA, ferulic acid]", "values": [{"measurement": "IC50", "setting": "TtCE15A [1]; read-out: FA", "result": "550 ± 45", "unit": "µM"}, {"measurement": "IC50", "setting": "TtCE15A [2]; read-out: FA", "result": "400 ± 40", "unit": "µM"}, {"measurement": "IC50", "setting": "TtCE15A [3]; read-out: FA", "result": "84 ± 5", "unit": "µM"}]}
{"smiles": "COc1cc(/C=C/C(=O)O)cc(OC)c1O", "note": "[SA, sinapic acid]", "values": [{"measurement": "IC50", "setting": "TtCE15A [1]; read-out: SA", "result": "560 ± 30", "unit": "µM"}, {"measurement": "IC50", "setting": "TtCE15A [2]; read-out: SA", "result": "770 ± 64", "unit": "µM"}, {"measurement": "IC50", "setting": "TtCE15A [3]; read-out: SA", "result": "190 ± 22", "unit": "µM"}]}
{"smiles": "CO[C@@H]1C(C(=O)O)O[C@H](O[C@H]2[C@H](O[C@@H]3CO[C@@H](O[C@H](CO)[C@H](O)[C@@H](O)CO)[C@H](O)[C@H]3O)OC[C@@H](O[C@@H]3OC[C@@H](O)[C@H](O)[C@H]3O)[C@@H]2O)[C@H](O)[C@H]1O", "note": "(stereo partly drawn) [XUXXR, 2^3-(4-O-methyl-D-glucuronyl)-α-D-xylotetraitol]", "values": [{"measurement": "IC50", "setting": "TtCE15A [1]; 0.4 mM BnzGlcA, pH 7.5, <10% DMSO, read-out: XUXXR", "result": "5510 ± 280", "unit": "µM"}]}
{"smiles": "O=C(O)/C=C/c1ccc(O)cc1", "note": "[pCoA, p-coumaric acid]", "values": [{"measurement": "IC50", "setting": "TtCE15A [1]; read-out: pCoA", "result": "830 ± 40", "unit": "µM"}, {"measurement": "IC50", "setting": "TtCE15A [3]; read-out: pCoA", "result": "4840 ± 470", "unit": "µM"}]}
